Experimental data: PMC5149029, “New Aspects of Silibinin Stereoisomers and their 3-O-galloyl Derivatives on Cytotoxicity and Ceramide Metabolism in Hep G2 hepatocarcinoma Cell Line” (Iranian Journal of Pharmaceutical Research : IJPR, 2016)
Marks after values point to notes of the source that are not given here.

Experiments:
[1] = tested on: Neutral sphingomyelinase (NSMase); assay: NSMase activity assay (Amplex Red kit); format: cell-based, human; conditions: for NSMase activity in comparison with control: Hep G2, 125 µM and higher concentrations
Experimental: (§1) The cell line was grown in RPMI-1640 medium supplemented with L-glutamine 2 mM, HEPESNa 25 mM, penicillin 100 U/mL, streptomycin 100 μg/mL and 10% […] (FBS) at 37 °C in a humidified atmosphere containing 5% CO2. Hep G2 cells were seeded at 1 × 10^6 cells/mL and sub cultured every 2–3 days after 60–80% confluence was reached. To prepare the lysates cells attached to the culture plate were scraped off with a cell scraper and collected in a 1.5 mL tube by centrifugation. The cell pellets were rinsed with PBS, suspended in sterile water, and then lysed by sonication. For each experiment, the cells were treated separately with increasing concentrations of silibinin derivatives (0, 25, 50, 75, 100, 125, 150, 175 and 200 μM) and incubated for 48 h.
Amplex™ Red NSMase Assay Kit (AAT Bioquest®, Inc. product no: 13620) was used to determine NSMases activity. The kit uses Amplite™ Red as a colorimetric probe to indirectly quantify the phosphocholine produced from the hydrolysis of sphingomyelin by NSMase.
Cells were washed with ice cold PBS and homogenized in neutral lysis buffer (20 mM Tris–HCl pH 7.4, 2 mM EDTA, 5 mM EGTA, 1 mM PMSF, 1% protein cocktail inhibitor and 1 mM sodium orthovanadate) for NSMase assays. Samples were kept on ice 15 min and centrifuged at 14,000 × g for 20 min at 4 °C. 100 µL of each supernatant fraction were incubated at 37 °C for 1hour with working solution. The fluorescence count of produced resorophine in the previous step was measured with a fluorescence micro plate reader by using excitation at 540 nm and emission at 590 nm ([36]).

Acid ceramidase (ACDase) = molecular target: T1, Acid ceramidase (ACDase) (Homo sapiens, UniProt Q13510); assay: ACDase activity assay (fluorogenic); format: cell-based; conditions: for ACDase activity in cell extract compared to control: Hep G2, 125 µM and higher concentrations
T1 construct: endogenous in cells; host or cells: Hep G2
T1 sequence (Q13510 22-395): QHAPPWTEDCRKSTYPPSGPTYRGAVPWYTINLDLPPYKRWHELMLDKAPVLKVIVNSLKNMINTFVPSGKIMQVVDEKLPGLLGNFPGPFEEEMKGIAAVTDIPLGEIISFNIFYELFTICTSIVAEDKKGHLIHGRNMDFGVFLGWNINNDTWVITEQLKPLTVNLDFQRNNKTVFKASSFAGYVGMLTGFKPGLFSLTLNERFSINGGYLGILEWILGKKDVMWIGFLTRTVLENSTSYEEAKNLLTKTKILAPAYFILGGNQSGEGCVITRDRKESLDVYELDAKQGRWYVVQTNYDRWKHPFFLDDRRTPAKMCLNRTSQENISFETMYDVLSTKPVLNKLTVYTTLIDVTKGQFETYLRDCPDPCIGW
Experimental: as §1
ACDase activity was measured in intact cells and in cell lysates by fluorogenic assays. For intact cell assays, cells (10,000/well) were seeded into 96-well plates in 10% FBS medium. After 24 h, medium was removed and replaced with 5% FBS medium containing indicated concentrations of silibinin derivatives (controls contained ethanol vehicle). Plates were placed in a tissue culture incubator at 37 °C, 5% CO2 for 24 h and cell viability assays were conducted in parallel. Fluorogenic substrate (ethanol vehicle) was then added to a final concentration of 16μM (125 μL final well volume), and the plates were incubated for 3 h at 37 °C, 5% CO2. To complete the assays, 50 μL methanol and 100 μL NaIO4 (2.5 mg/mL) in 0.1 M glycine buffer with a pH of 10.6 were added and the plates were incubated in a dark place for 2 h at 37 °C. Fluorescence was measured in the UV range (365 nm excitation/410–460 nm emission) using a GloMax® multi-detection system (Promega, Madison, WI).
To measure ACDase activity in cell lysates, cells were harvested using trypsin/EDTA, washed three times in ice-cold PBS and re-suspended at a concentration of 1 × 10^6 cells/mL in 0.2 M sucrose. After sonication on ice (microtip, 5–10 s), lysates were centrifuged at 20,000 × g at 4 °C for 15 min to remove debris. Protein in the supernatant was measured using the BCA assay (Pierce Products, Thermo Scientific, Rockford, IL) and bovine serum albumin standard curves. Supernatant protein (60 μg) was added to 96-well plates containing the indicated compounds and sodium acetate–acetic acid buffer, pH 4.5 (25 mM), and incubated for 1 h at 37 °C, in final well volume of 100 μL. Fluorescent substrate was added to a final concentration of 40 μM (125 μL total well volume), and the assay was incubated in the dark at 37 °C for 3 h. Fluorescence was then measured as described above ([23]).

Hep G2 cells = assay: Cell viability, MTT colorimetric assay; format: cell-based; conditions: Hep G2, 48 h
Experimental: The cell line was grown in RPMI-1640 medium supplemented with L-glutamine 2 mM, HEPESNa 25 mM, penicillin 100 U/mL, streptomycin 100 μg/mL and 10% phosphate-buffered saline (FBS) at 37 °C in a humidified atmosphere containing 5% CO2. Hep G2 cells were seeded at 1 × 10^6 cells/mL and sub cultured every 2–3 days after 60–80% confluence was reached. […] For each experiment, the cells were treated separately with increasing concentrations of silibinin derivatives (0, 25, 50, 75, 100, 125, 150, 175 and 200 μM) and incubated for 48 h.
To measure cell viability, the 3-(4,5-dimethylthiazol-2-yl)-2,5-diphenyl tetrazolium bromide (MTT) colorimetric assay was performed as published ([32], [33]). Briefly, Hep G2 cells were seeded onto 96 flat bottom well plates (50 × 10^3 cells/well) and grown overnight. After the incubation period with silibinin isomers, cells were washed twice with phosphate-buffered saline solution and incubated with MTT solution at a final concentration of 0.5 mg/mL for 3 h and then lysed in dimethyl sulfoxide. Optical density was measured at 540 nm and the background absorbance measured at 660 nm was subtracted. Each experiment was replicated separately for three times.

caspase-3 = assay: Caspase-3 activity, colorimetric substrate Ac-DEVD-pNA; format: cell-based, human; conditions: Hep G2, 48 h, control 0.38
Experimental: as §1
The activities of caspase-3 and 9 were measured using colorimetric substrates. Cells were added to a lysis buffer (100 mM HEPES [pH 7.5], 0.1% CHAPS, 1 mM PMSF, 10 mM MDTT, 1 mM EDTA) and placed on ice for 30 min. After the cells were centrifuged at 10,000 × g for 10 min at 4 °C, 50 μg of protein from the supernatants was added to each of the caspase substrates. The colorimetric substrates for caspase-3 and 9 were Ac-DEVD-pNA (Asp-Glu-Val-Asp-pNA) and Ac-LEHD-pNA (N-acetyl-Leu-Glu-His-Asp-pNA), respectively. After a 2 h incubation, to measure p-nitroanilide absorbance was determined at 405 nm ([34]).

| ACDase activity in cell extract compared to control (Acid ceramidase (ACDase)) | NSMase activity in comparison with control [1] | SMILES | Cell viability (% of control) (Hep G2 cells; 25 micro molar) | Cell viability (% of control) (Hep G2 cells; 50 micro molar) | Cell viability (% of control) (Hep G2 cells; 75 micro molar) | Cell viability (% of control) (Hep G2 cells; 100 micro molar) | Cell viability (% of control) (Hep G2 cells; 125 micro molar) | Cell viability (% of control) (Hep G2 cells; 150 micro molar) | Cell viability (% of control) (Hep G2 cells; 175 micro molar) | Caspase-3 (ΔOD 405nm) (caspase-3; 25 micro molar) | Caspase-3 (ΔOD 405nm) (caspase-3; 50 micro molar) | Caspase-3 (ΔOD 405nm) (caspase-3; 75 micro molar) | Caspase-3 (ΔOD 405nm) (caspase-3; 100 micro molar) | Caspase-3 (ΔOD 405nm) (caspase-3; 125 micro molar) | Caspase-3 (ΔOD 405nm) (caspase-3; 150 micro molar) | Caspase-3 (ΔOD 405nm) (caspase-3; 175 micro molar) | Caspase-3 (ΔOD 405nm) (caspase-3; 200 micro molar) | Cell viability (% of control) (Hep G2 cells; 200 micro molar) | also measured |
| --- | --- | --- | --- | --- | --- | --- | --- | --- | --- | --- | --- | --- | --- | --- | --- | --- | --- | --- | --- |
| markedly inhibited |  | COc1cc([C@@H]2Oc3cc([C@H]4Oc5cc(O)cc(O)c5C(=O)[C@@H]4OC(=O)c4cc(O)c(O)c(O)c4)ccc3O[C@H]2CO)ccc1O [SGB, 3-O-galloyl silybin B] | 91 + 10.0 % of control | 78 + 9.5^* % of control | 65 + 8.6^* % of control | 56 + 7.7^* % of control | 49 + 6.9^* % of control | 35 + 5.1^* % of control | 29 + 4.3^* % of control | 0.45 ± 0.065 ΔOD 405nm | 0.56 ± 0.070 ΔOD 405nm | 0.62 ± 0.081 ΔOD 405nm | 0.78 ± 0.095 ΔOD 405nm | 0.98 ± 0.128 ΔOD 405nm | 1.21 ± 0.160 ΔOD 405nm | 1.53 ± 0.209 ΔOD 405nm | 1.63 ± 0.221 ΔOD 405nm |  | NSMase activity with respect to control ([1]; Hep G2, all concentrations (0-200 µM)): did not exert any significant change |
| markedly inhibited | considerable increase | COc1cc([C@@H]2Oc3cc([C@H]4Oc5cc(O)cc(O)c5C(=O)[C@@H]4O)ccc3O[C@H]2CO)ccc1O [SB, silybin B] | 94 + 10.3 % of control | 89 + 10.5 % of control | 81 + 10.7^* % of control | 70 + 10.0^* % of control | 60 + 7.9^* % of control | 51 + 7.6^* % of control | 45 + 5.1^* % of control | 0.34 ± 0.050 ΔOD 405nm | 0.45 ± 0.060 ΔOD 405nm | 0.58 ± 0.076 ΔOD 405nm | 0.53 ± 0.065 ΔOD 405nm | 0.62 ± 0.095 ΔOD 405nm | 0.73 ± 0.105 ΔOD 405nm | 0.82 ± 0.130 ΔOD 405nm | 0.79 ± 0.096 ΔOD 405nm | 40 + 6.0^* % of control |  |
| markedly inhibited | considerable increase | COc1cc([C@H]2Oc3cc([C@H]4Oc5cc(O)cc(O)c5C(=O)[C@@H]4OC(=O)c4cc(O)c(O)c(O)c4)ccc3O[C@@H]2CO)ccc1O [SGA, 3-O-galloyl silybin A] | 96 + 10.5 % of control | 84 + 9.3^* % of control | 73 + 10.7^* % of control | 63 + 8.9^* % of control | 52 + 8.1^* % of control | 44 + 6.0^* % of control | 38 + 5.7^* % of control | 0.35 ± 0.038 ΔOD 405nm | 0.46 ± 0.062 ΔOD 405nm | 0.58 ± 0.070 ΔOD 405nm | 0.67 ± 0.084 ΔOD 405nm | 0.83 ± 0.114 ΔOD 405nm | 0.97 ± 0.134 ΔOD 405nm | 1.12 ± 0.147 ΔOD 405nm | 1.26 ± 0.164 ΔOD 405nm | 33 + 5.1^* % of control |  |
|  | considerable increase | COc1cc([C@H]2Oc3cc([C@H]4Oc5cc(O)cc(O)c5C(=O)[C@@H]4O)ccc3O[C@@H]2CO)ccc1O [SA, silybin A] | 97 + 10.0 % of control | 95 + 10.3 % of control | 89 + 11.4 % of control | 83 + 9.5 % of control | 71 + 8.3^* % of control | 63 + 7.4^* % of control | 52 + 6.0^* % of control | 0.45 ± 0.055 ΔOD 405nm | 0.58 ± 0.080 ΔOD 405nm | 0.65 ± 0.098 ΔOD 405nm | 0.79 ± 0.107 ΔOD 405nm | 0.91 ± 0.133 ΔOD 405nm | 0.98 ± 0.148 ΔOD 405nm | 1.12 ± 0.164 ΔOD 405nm | 1.06 ± 0.152 ΔOD 405nm | 47 + 5.5^* % of control | ACDase activity, effect of cell exposure (Acid ceramidase (ACDase); Hep G2, throughout the concentration range (0-200 µM)): could not alter ACDase activity; inhibition at 200 µM (Acid ceramidase (ACDase); HepG2, Hep G2 cell extract, 200 µM): 18% |
